We go through 4 molecules from article PMC10712649 (Pharmacological research, 2023).

One data set concerns myometrial cells. Nature of the data set: Combination high-throughput Ca2+-mobilization assay. The note with it: for synergy in combination Ca2+-mobilization assay: 8 x 8 dose matrices, Combenefit.
The nature of data set [1]: Intrinsic clearance in liver microsomes. The data set is classed as in vitro ADME. The note with it: human.
A further data set in a line: MDCK permeability. Format: in vitro ADME. The note with it: dog.
In data set [2] the test system is primary aortic vascular smooth muscle cells (VSMCs). Nature of the data set: Ca2+-mobilization assay, concentration-response. The data set is classed as cell-based, human.
Data set [3] is described as follows: In vitro therapeutic index. The note with it: smallest cell viability IC50 among the three cell types / Ca2+ assay IC50.
The next data set concerns primary myometrial cells. Nature of the data set: Ca2+-mobilization assay, concentration-response. Format: cell-based. Conditions: Homo sapiens, read-out: Emax, Myometrial, inhibition of Ca2+-mobilization.
Data set [4] in a line: Intrinsic clearance in liver microsomes. Format: in vitro ADME. The note with it: mouse.
Another data set is described as follows: Solubility. The data set is classed as physicochemical.
Data set [5] is described as follows: Human plasma protein binding. The data set is classed as in vitro ADME.
Data set [6] can be described thus: Intrinsic clearance in liver microsomes. The note with it: rat. The data set is classed as in vitro ADME. For orientation: Liver microsomes are vesicles of endoplasmic reticulum, rich in cytochrome P450 enzymes.
The test system of a further data set is mouse myometrial tissue. Nature of the data set: Ex vivo isometric myometrial contractility organ bath assay. Conditions: for Emax: read-out: Emax, inhibition of myometrial contractions; for IC50: read-out: IC50, inhibition of myometrial contractions.
The test system of a further data set is human myometrial tissue. Described as above. The note with it: read-out: Emax, inhibition of myometrial contractions.
Data set [7] relates to mifepristone-induced mouse model of PTB. Nature of the data set: In vivo therapeutic efficacy in mifepristone-induced mouse model of PTB.
A further data set relates to CD-1 pregnant mice. Nature of the data set: Minimal effective dose of mifepristone to induce PTB. Format: in vivo, mouse. Conditions: s.c. on day 15 of pregnancy.
Data set [8] concerns mifepristone-induced mouse model of PTB. The note with it: mifepristone 150 μg; prior study; cited from earlier work.

Converted amounts (≈) assume the structure as drawn.

One may read the microsomal CLint as the capacity of the preparation to metabolise the compound, expressed as a volume cleared per time. Low values mean greater metabolic stability, high ones faster metabolism. As usually defined, the Papp is a coefficient for how fast a substance crosses the barrier. High values mean ready permeation, low ones poor permeation. As a reminder, the Emax is the maximal effect, on the per cent scale that the assay sets. Broadly, the solubility is the concentration that dissolves in the medium under given conditions. Low values mean little dissolved substance, high ones much dissolved substance. For orientation: fraction unbound means free concentration divided by total concentration. Usually IC50 stands for the concentration needed to halve the response being measured. As to `COc1c(-c2coc3cc4c(cc3c2=O)CC(OC(C)=O)C(C)(C)O4)ccc2c1C=CC(C)(C)O2` (stereo not drawn) [MA, mundulone acetate], the “synergy in combination Ca2+-mobilization assay” value with myometrial cells is “exhibited synergistic efficacy with only nifedipine”. Besides, in the data set on myometrial cells (in combination with nifedipine), the “fold enhancement in potency in combination” value is listed as 2–3 fold. The “fold improvement of efficacy in combination vs single-agent” value in the data set on myometrial cells (in combination with nifedipine) is listed as 6 fold. Also, the values for the microsomal CLint in data set [1], in data set [4] and in data set [6] were 27.2 µL/min/mg, 886 µL/min/mg and 586 µL/min/mg, respectively. The same molecule displayed a Papp in the data set “MDCK permeability” of 22.1 ×10⁻⁶ cm/s. Moreover, the “Emax, % difference” value in data set [2] (myometrial cells vs aorta VSMCs) amounted to 70%. In data set [3], the “TI (therapeutic index)” value is given as 8.8. Moreover, the Emax turned out to be 44.5% in the data set with primary myometrial cells and 27% in the data set with mouse myometrial tissue. Further, the solubility in “Solubility” was 11 to 20 µM. In [5], the fraction unbound came to 0.001. Besides, in the data set on mouse myometrial tissue, the IC50 is over 100 µM.

As a reminder, the mortality is the percentage killed. With `COc1c(-c2coc3cc4c(cc3c2=O)CC(O)C(C)(C)O4)ccc2c1C=CC(C)(C)O2` (stereo not drawn) [Mundulone, mundulone], the Emax worked out at 57% in the data set on human myometrial tissue, 80.5% in the data set with primary myometrial cells and 70% in the data set with mouse myometrial tissue. The “synergy in combination Ca2+-mobilization assay” value with myometrial cells was “displayed synergism with atosiban and nifedipine”. Further, the “fold improvement of efficacy in combination vs single-agent” value with myometrial cells (in combination with atosiban) turned out to be 2 fold; in the data set on myometrial cells (in combination with nifedipine) it was 6 fold. The “fold enhancement in potency in combination” value in the data set on myometrial cells (in combination with nifedipine) is on record as 2–3 fold. For the same molecule, the “fold improvement of potency in combination vs single-agent” value in the data set on myometrial cells (with either atosiban (FR 3.7:1) or nifedipine (FR 1:4.4)) is listed as 2–3 fold. The values for the microsomal CLint in [1], in [4] and in [6] were under 20 µL/min/mg, 47.1 µL/min/mg and 30.7 µL/min/mg, respectively. This molecule also displayed a Papp in “MDCK permeability” of 49.4 ×10⁻⁶ cm/s. Also, the “IC50, Fold difference” value in data set [2] (aorta VSMCs vs myometrial cells) came to 2. Moreover, the “TI (therapeutic index)” value in [3] is listed as 0.8. Also, the solubility in the data set “Solubility” lay within 21 to 40 µM (≈ 9.12 to 17.4 µg/mL). The fraction unbound in [5] was 0.007. Moreover, the IC50 with mouse myometrial tissue is 10 µM. In addition, in data set [7] (30 μg mifepristone, 6.5, 13, or 26 mg/kg twice daily s.c., dose-dependently, p = 0.0457), the timing of delivery result is given as “delayed the timing of delivery”. In data set [7] (26 mg/kg twice daily until the evening of day 17, 30 μg mifepristone), this molecule returned a mortality of 100%. Besides, the “signs of impaired health or mortality in treated mice” value in data set [7] (single-agent, twice daily) is “did not show signs of impaired health or mortality until treated with 26 mg/kg twice daily for two days”.

Regarding `CC#C[C@]1(O)CC[C@H]2[C@@H]3CCC4=CC(=O)CCC4=C3[C@@H](c3ccc(N(C)C)cc3)C[C@@]21C` [mifepristone], the “lowest dose required for 100% PTB rates” value with CD-1 pregnant mice is 30 µg.

`COC(=O)C1=C(C)NC(C)=C(C(=O)OC)C1c1ccccc1[N+](=O)[O-]` [nifedipine]: the “delivery occurring post-mifepristone administration” value in data set [8] is at most 25 h.
